Patent US11352339B2 (MISSION THERAPEUTICS LIMITED, priority 2016, dated 2022)

Target: USP30 (Homo sapiens (Human), UniProt Q70CQ3)
Assay: USP30 Biochemical IC50 Assay
Conditions: fluorescence polarisation, TAMRA labelled peptide linked to ubiquitin; 30 min pre-incubation, read after 2 h; read-out: IC50 range
Procedure: Reactions were performed in duplicate in black 384 well plates (small volume, Greiner 784076) in a final reaction volume of 21 μl. Either 1 μl of 50% DMSO or diluted compound was added to the plate. […] Enzyme and compound were incubated for 30 min at room temp. Reactions were initiated by the addition of 50 nM of TAMRA labelled peptide linked to ubiquitin via an iso-peptide bond as fluorescence polarisation substrate. Reactions were read immediately after addition of substrate and following a 2 h incubation at room temperature. Readings were performed on a Pherastar Plus (BMG Labtech). λ Excitation 540 nm; λ Emission 590 nm.

Sequence of USP30 (Q70CQ3 57-517): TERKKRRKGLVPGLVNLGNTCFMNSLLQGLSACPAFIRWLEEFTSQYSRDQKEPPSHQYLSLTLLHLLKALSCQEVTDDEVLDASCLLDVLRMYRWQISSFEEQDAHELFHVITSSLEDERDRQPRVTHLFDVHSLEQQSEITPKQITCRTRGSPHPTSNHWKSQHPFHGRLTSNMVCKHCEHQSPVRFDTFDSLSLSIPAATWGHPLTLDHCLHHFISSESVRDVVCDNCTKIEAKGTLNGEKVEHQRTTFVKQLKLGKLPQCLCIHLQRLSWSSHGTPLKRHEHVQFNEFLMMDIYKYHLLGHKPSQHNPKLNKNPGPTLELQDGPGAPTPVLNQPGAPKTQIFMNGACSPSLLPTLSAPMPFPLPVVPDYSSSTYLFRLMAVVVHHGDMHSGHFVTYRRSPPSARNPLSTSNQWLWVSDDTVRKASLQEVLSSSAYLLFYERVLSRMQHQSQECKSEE

| Compound | IC50 [nM] |
| --- | --- |
| Cn1cc(-c2cccc(-c3cc(C4CCN(C#N)C4)n[nH]3)c2)cn1 (stereo not shown) [Example 31, 3-(5-(3-(1-Methyl-1H-pyrazol-4-yl)phenyl)-1H-pyrazol-3-yl)pyrrolidine-1-carbonitrile] | 1000 to 10000 |
| N#CN1CCC(c2cc(-c3cccc(-c4ccccc4)c3)n[nH]2)C1 (stereo not shown) [Example 14, 3-(3-([1,1′-Biphenyl]-3-yl)-1H-pyrazol-5-yl)pyrrolidine-1-carbonitrile] | 100 to 1000 |
| N#Cc1cc(-c2nccc(-c3nc([C@@H]4CCCN4C#N)no3)n2)ccn1 [Example 188, (S)-4-(4-(3-(1-Cyanopyrrolidin-2-yl)-1,2,4-oxadiazol-5-yl)pyrimidin-2-yl)picolinonitrile] | < 100 |
| N#CN1CCC(c2cc(-c3ccc(C(N)=O)cc3)n[nH]2)C1 (stereo not shown) [Example 4, 4-(5-(1-Cyanopyrrolidin-3-yl)-1H-pyrazol-3-yl)benzamide] | 1000 to 10000 |
| N#Cc1ccc(-c2cc(-c3nc([C@@H]4CCCN4C#N)no3)ccn2)cc1 [Example 177, (S)-2-(5-(2-(4-Cyanophenyl)pyridin-4-yl)-1,2,4-oxadiazol-3-yl)pyrrolidine-1-carbonitrile] | 100 to 1000 |
| N#CN1CCC(c2noc(-c3cc(-c4ccccc4)nc4ccccc34)n2)C1 (stereo not shown) [Example 53, 3-(5-(2-Phenylquinolin-4-yl)-1,2,4-oxadiazol-3-yl)pyrrolidine-1-carbonitrile] | 100 to 1000 |
| N#CN1CCCC1c1noc(-c2cccc(-c3ccoc3)c2)n1 (stereo not shown) [Example 160, 2-(5-(3-(Furan-3-yl)phenyl)-1,2,4-oxadiazol-3-yl)pyrrolidine-1-carbonitrile] | 100 to 1000 |
| CC(=O)Nc1ccc(-c2cc(C3CCN(C#N)C3)[nH]n2)cc1 (stereo not shown) [Example 9, N-(4-(5-(1-Cyanopyrrolidin-3-yl)-1H-pyrazol-3-yl)phenyl)acetamide] | 1000 to 10000 |
| N#CN1CCC(c2nc3cc(-c4ccncc4)cnc3[nH]2)C1 (stereo not shown) [Example 80, 3-(6-(Pyridin-4-yl)-3H-imidazo[4,5-b]pyridin-2-yl)pyrrolidine-1-carbonitrile] | 100 to 1000 |
| CN(C)C(=O)c1cccc(-c2cc(C3CCN(C#N)C3)[nH]n2)c1 (stereo not shown) [Example 8, 3-(5-(1-Cyanopyrrolidin-3-yl)-1H-pyrazol-3-yl)-N,N-dimethylbenzamide] | 100 to 1000 |
| N#CN1CCCC1c1noc(-c2cccc(-c3cncnc3)c2)n1 (stereo not shown) [Example 159, 2-(5-(3-(Pyrimidin-5-yl)phenyl)-1,2,4-oxadiazol-3-yl)pyrrolidine-1-carbonitrile] | 1000 to 10000 |
| N#CN1CCCC1c1noc(-c2cccc(-c3cccnc3)c2)n1 (stereo not shown) [Example 152, 2-(5-(3-(Pyridin-3-yl)phenyl)-1,2,4-oxadiazol-3-yl)pyrrolidine-1-carbonitrile] | 100 to 1000 |
| N#CN1CCC(c2cc(-c3cccc(-c4ccc(Cl)cc4)c3)n[nH]2)C1 (stereo not shown) [Example 29, 3-(3-(4′-Chloro-[1,1′-biphenyl]-3-yl)-1H-pyrazol-5-yl)pyrrolidine-1-carbonitrile] | 100 to 1000 |
| N#Cc1ccc(-c2cccc(-c3nc([C@@H]4CCCN4C#N)no3)c2)cc1 [Example 174, (S)-2-(5-(4′-Cyano-[1,1′-biphenyl]-3-yl)-1,2,4-oxadiazol-3-yl)pyrrolidine-1-carbonitrile] | < 100 |
| N#CN1CCC(c2[nH]nc(-c3cccc(-c4ccccc4)c3)c2F)C1 (stereo not shown) [Example 15, 3-(3-([1,1′-Biphenyl]-3-yl)-4-fluoro-1H-pyrazol-5-yl)pyrrolidine-1-carbonitrile] | < 100 |

Other lines, results leading:

| IC50 [nM] | Compound |
| --- | --- |
| < 100 | N#CN1CCCC1c1noc(-c2ccnc(-c3cccc(OC(F)(F)F)c3)n2)n1 (stereo not shown) [Example 184, 2-(5-(2-(3-(Trifluoromethoxy)phenyl)pyrimidin-4-yl)-1,2,4-oxadiazol-3-yl)pyrrolidine-1-carbonitrile] |
| 100 to 1000 | Cn1cc(-c2cc(-c3nc([C@@H]4CCN(C#N)C4)no3)ccc2F)cn1 [Example 70, (R)-3-(5-(4-Fluoro-3-(1-methyl-1H-pyrazol-4-yl)phenyl)-1,2,4-oxadiazol-3-yl)pyrrolidine-1-carbonitrile] |
| 100 to 1000 | N#CN1CCC(c2cc(-c3ccnc(-c4cccnc4)c3)n[nH]2)C1 (stereo not shown) [Example 47, 3-(3-([2,3′-Bipyridin]-4-yl)-1H-pyrazol-5-yl)pyrrolidine-1-carbonitrile] |
| 1000 to 10000 | N#CN1CCCC1c1noc(-c2ccnc(-c3cccc(C(N)=O)c3)c2)n1 (stereo not shown) [Example 170, 3-(4-(3-(1-Cyanopyrrolidin-2-yl)-1,2,4-oxadiazol-5-yl)pyridin-2-yl)benzamide] |
| 100 to 1000 | Cc1cccc2cc(-c3cccc(-c4nc(C5CCCN5C#N)no4)c3)[nH]c12 (stereo not shown) [Example 165, 2-(5-(3-(7-Methyl-1H-indo1-2-yl)phenyl)-1,2,4-oxadiazol-3-yl)pyrrolidine-1-carbonitrile] |
| 100 to 1000 | C[C@@H]1CN(C#N)C[C@H]1c1cc(-c2cccc(-c3ccccc3)c2)nn1C [Example 24] |
| 1000 to 10000 | N#CN1CC[C@@H](c2cc(-c3cccc(-c4cnoc4)c3)[nH]n2)C1 [Example 32, 3-(5-(3-(Isoxazol-4-yl)phenyl)-1H-pyrazol-3-yl)pyrrolidine-1-carbonitrile] |
| 100 to 1000 | C[C@H]1CN(C#N)C[C@@H]1c1nc2cc(-c3ccccc3)cnc2[nH]1 (single isomer, unassigned) [Example 103, Trans-3-methyl-4-(6-phenyl-3H-imidazo[4,5-b]pyridin-2-yl)pyrrolidine-1-carbonitrile] |
| 1000 to 10000 | N#Cc1ccc2ccc(-c3nc([C@@H]4CCCN4C#N)no3)cc2n1 (stereo in doubt) [Example 179, 7-(3-(1-Cyanopyrrolidin-2-yl)-1,2,4-oxadiazol-5-yl)quinoline-2-carbonitrile] |
| 100 to 1000 | N#CN1CCC(c2cc(-c3ccc(-c4ccccc4)cc3)[nH]n2)C1 (stereo not shown) [Example 35, 3-(5-([1,1′-Biphenyl]-4-yl)-1H-pyrazol-3-yl)pyrrolidine-1-carbonitrile] |
| 1000 to 10000 | N#CN1CCC(c2nc3nccc(-c4ccccc4)c3[nH]2)C1 (stereo not shown) [Example 98, 3-(7-Phenyl-3H-imidazo[4,5-b]pyridin-2-yl)pyrrolidine-1-carbonitrile] |
| 100 to 1000 | N#CN1C[C@@H](c2cc(-c3cccc(-c4ccccc4)c3)n[nH]2)[C@H](C2CC2)C1 (relative stereo) [Example 46, Trans-3-(3-([1,1′-biphenyl]-3-yl)-1H-pyrazol-5-yl)-4-cyclopropylpyrrolidine-1-carbonitrile] |
| < 100 | N#CN1CCCC1c1noc(-c2cccc(-c3ccc([N+](=O)[O-])cc3)c2)n1 (stereo not shown) [Example 157, 2-(5-(4′-Nitro-[1,1′-biphenyl]-3-yl)-1,2,4-oxadiazol-3-yl)pyrrolidine-1-carbonitrile] |
| 100 to 1000 | N#Cc1cnn(-c2nccc(-c3nc([C@@H]4CCCN4C#N)no3)n2)c1 [Example 187, (S)-1-(4-(3-(1-Cyanopyrrolidin-2-yl)-1,2,4-oxadiazol-5-yl)pyrimidin-2-yl)-1H-pyrazole-4-carbonitrile] |
| < 100 | Cc1ccc(F)c(-c2ccc3nc(C4CCN(C#N)C4)[nH]c3c2)c1 (stereo not shown) [Example 76, 3-(6-(2-Fluoro-5-methylphenyl)-1H-benzo[d]imidazol-2-yl)pyrrolidine-1-carbonitrile] |
| 1000 to 10000 | N#Cc1cnn(-c2cc(-c3nc([C@@H]4CCCN4C#N)no3)ccn2)c1 [Example 193, (S)-1-(4-(3-(1-Cyanopyrrolidin-2-yl)-1,2,4-oxadiazol-5-yl)pyridin-2-yl)-1H-pyrazole-4-carbonitrile] |
